Reference: US20140357512A1, “HISTONE DEACETYLASE (HDAC) BIOMARKERS IN MULTIPLE MYELOMA” (priority 2013, published 2014)

Tested on: human myeloma cell line MM.1S
Test: SILAC acetylated-lysine peptide profiling, HDAC inhibitor vs DMSO (light/heavy ratio)
Type: cell-based
Text: An embodiment of the invention comprises utilizing the SILAC method in order to quantitate changes in protein expression between two or more populations of cells. The SILAC method is a technique based on mass spectrometry that detects differences in protein abundance among samples using non-radioactive isotopic labeling. The SILAC method is known in the art, and described in detail in Ong et al., “Stable Isotope Labeling by Amino Acids in Cell Culture, SILAC, as a Simple and Accurate Approach to Expression Proteomics”, Molecular & Cellular Proteomics, vol. 1, pp. 376-386 (2002), which is incorporated herein by reference in its entirety.
Briefly, the SILAC method involves growing two populations of cells in cell culture. The first population of cells is grown in growth media containing normal amino acids (“normal media”). The second population of cells is grown in media lacking a standard essential amino acid (such as lysine), but is then supplemented with a non-radioactive, isotopically labeled form of that essential amino acid (such as lysine labeled with ^13C atoms, rather than normal ^12C atoms), which is called “heavy media”. When the two populations of cells are each growing in the medium, they incorporate the amino acids into all of their proteins. The growth of cells maintained in the heavy media is no different from that in normal media. All peptides containing the heavy amino acids are heavier than their normal counterparts. The cells from each of the two populations of cells are lysed. The lysates from each of the two cell populations are then combined. The combined cell lysates are then analyzed by mass spectrometry. Pairs of chemically identical peptides of different stable isotope composition can be differentiated in a mass spectrometer due to their difference in mass. The ratio of peak intensities in the mass spectrum for such peptide pairs reflects the abundance ratio for the two proteins.
This example describes SILAC studies that were performed to compare the effects of three different HDAC inhibitors (Compound A, Compound B, and tubastatin A) to a control on a human multiple myeloma cell line. The HDAC inhibitors were also compared amongst themselves to determine differences in their effects.
A human myeloma cell line MM.1S was grown using either ^12C (light) or ^13C (heavy) lysine containing culture medium. The “heavy” cells were treated with DMSO as the control, and the “light” cells were treated with a single HDAC inhibitor at 37° C. for 6 hours. The heavy and light cells were lysed, and the lysates were mixed in 1:1 ratio and digested with the protease trypsin. The acetylated lysine containing peptides (due to the action of the HDAC inhibitor) in the digested peptide pool were captured by a non-specific anti-acetylated lysine antibody cocktail (the antibodies identify both light and heavy acetylated peptides), and subjected to mass spectrometry analysis in order to identify thousands of individual peptides.
Thousands of peptides were identified in pairs (^12C and ^13C) due to their known mass differences. The amino acid sequence and quantitative ratio (Light/Heavy) of a given peptide in two differentially treated cell lysates were then determined and annotated with their possible protein (gene) sources.
As stated above, three HDAC inhibitors (Compound A, Compound B, and Tubastatin A) were used. Thus, the SILAC method was performed three times, with a different HDAC inhibitor compared to a control each time. Accordingly, there are three pairs of quantitative data in the table below, i.e., Compound A:DMSO, Compound B:DMSO, and Tubastatin A:DMSO. A cut-off of 1.30 fold of change (increase or decrease) was then used to determine “changed” or “+” in the table, and any peptides with a fold of change less than 1.3 fold were determined to be “unchanged” or “0” in the table. Those peptides that were not identified were marked as “NA” in the table. […]

CN1CCc2c(c3ccccc3n2Cc2ccc(C(=O)NO)cc2)C1 [Tub A]
light to heavy ratio (L/H ratio) of acetylated peptide, log 2 scale (NIDPK(ac)PCTPR (SEQ ID NO: 148), Isoform 1 of DAZ-associated protein 1 [83], DAZAP1): 0.80
L/H ratio of acetylated peptide (NK(ac)WFFQK (SEQ ID NO: 498), 60S ribosomal protein L27 [128], RPL27): 0.00 log 2
light to heavy ratio (L/H ratio) of acetylated peptide, log 2 scale (NKEEAAEYAK(ac)LLAK (SEQ ID NO: 214), 40S ribosomal protein S6 [211], RPS6): 0.53
light to heavy ratio (L/H ratio) of acetylated peptide, log 2 scale (NLDK(ac)EYLPIGGLAEFCK (SEQ ID NO: 159), Aspartate aminotransferase mitochondrial [94], GOT2): −0.46
L/H ratio of acetylated peptide ADKDYHFK(ac)VDNDENEHQLSLR (SEQ ID NO: 61) (NPM1 [32], log 2 scale, drug vs DMSO): −0.64
L/H ratio of acetylated peptide FINYVK(ac)NCFR (SEQ ID NO: 62) (NPM1 [244], log 2 scale, drug vs DMSO): −0.52
light to heavy ratio (L/H ratio) of acetylated peptide, log 2 scale (NTILK(ac)AYDGR (SEQ ID NO: 177), Isocitrate dehydrogenase [NADP] mitochondrial [256], IDH2): −0.49
L/H ratio of acetylated peptide GVTQFGNK(ac)YIQQTKPLTLER (SEQ ID NO: 18) (NUDT21 [23], log 2 scale, drug vs DMSO): 0.50
light to heavy ratio (L/H ratio) of acetylated peptide, log 2 scale (NVESYTK(ac)LGNPTR (SEQ ID NO: 210), Dolichyl-diphosphooligosaccharide--protein glycosyltransferase subunit 1 precursor [226], RPN1): −0.88
light to heavy ratio (L/H ratio) of acetylated peptide, log 2 scale (NVTLPAVFK(ac)APIRPDIVNFVHTNLR (SEQ ID NO: 205), 60S ribosomal protein L4 [29], RPL4): −0.48
L/H ratio of acetylated peptide (NVYK(ac)FELDTSER (SEQ ID NO: 444), Dolichyl-diphosphooligosaccharide--protein glycosyltransferase subunit 2 [460], RPN2): 0.00 log 2
light to heavy ratio (L/H ratio) of acetylated peptide, log 2 scale (NYEHLFK(ac)VNDK (SEQ ID NO: 192), Mitochondrial import inner membrane translocase subunit TIM16 [82], PAM16): 1.00
light to heavy ratio (L/H ratio) of acetylated peptide FCLSK(ac)PGVYK (SEQ ID NO: 345) (Nodal modulator 1 [630], NOMO3, NOMO1, drug:DMSO): 0.00 log 2
L/H ratio of acetylated peptide SGVGNVFIK(ac)NLDK (SEQ ID NO: 63) (PABPC4 [104], log 2 scale, drug vs DMSO): −0.54
L/H ratio of acetylated peptide YGVSGYPTLK(ac)IFR (SEQ ID NO: 66) (PDIA3 [104], log 2 scale, drug vs DMSO): −0.60
L/H ratio of acetylated peptide PSHLTNK(ac)FEDK (SEQ ID NO: 65) (PDIA3 [214], log 2 scale, drug vs DMSO): −0.63
L/H ratio of acetylated peptide GEK(ac)FVMQEEFSR (SEQ ID NO: 64) (PDIA3 [335], log 2 scale, drug vs DMSO): −0.58
light to heavy ratio (L/H ratio) of acetylated peptide, log 2 scale (PGGPALWGDAFK(ac)R (SEQ ID NO: 189), Protein NipSnap homolog 3A [166], NIPSNAP3A): 0.77
L/H ratio of acetylated peptide SLLGK(ac)DVLFLK (SEQ ID NO: 67) (PGK1 [91], log 2 scale, drug vs DMSO): 0.38
L/H ratio of acetylated peptide SIYGEK(ac)FEDENFILK (SEQ ID NO: 68) (PPIA [82], log 2 scale, drug vs DMSO): −0.67
L/H ratio of acetylated peptide VIFGLFGK(ac)TVPK (SEQ ID NO: 70) (PPIB [67], log 2 scale, drug vs DMSO): −0.44
L/H ratio of acetylated peptide TVPK(ac)TVDNFVALATGEK (SEQ ID NO: 69) (PPIB [71], log 2 scale, drug vs DMSO): −0.49
L/H ratio of acetylated peptide VIK(ac)[…] (SEQ ID NO: 71) (PPIB [98], log 2 scale, drug vs DMSO): −0.40
L/H ratio of acetylated peptide IYGFYDECK(ac)R (SEQ ID NO: 72) (PPP1CC [141], log 2 scale, drug vs DMSO): −0.43
light to heavy ratio (L/H ratio) of acetylated peptide TAWLDGK(ac)HVVFGK (SEQ ID NO: 592) (Peptidyl-prolyl cis-trans isomerase B [165], gene PPIB, inhibitor:DMSO): 0.00 log 2
light to heavy ratio (L/H ratio) of acetylated peptide FPDENFK(ac)LK (SEQ ID NO: 347) (Peptidyl-prolyl cis-trans isomerase C [123], PPIC, drug:DMSO): 0.00 log 2
light to heavy ratio (L/H ratio) of acetylated peptide (ac)AAK(ac)VFESIGK (SEQ ID NO: 277) (Prohibitin [4], PHB, drug:DMSO): 0.39 log 2
light to heavy ratio (L/H ratio) of acetylated peptide FVVEK(ac)AEQQK (SEQ ID NO: 263) (Prohibitin [202], PHB, drug:DMSO): 0.62 log 2
light to heavy ratio (L/H ratio) of acetylated peptide GYPTIK(ac)FFR (SEQ ID NO: 541) (Protein disulfide-isomerase [103], gene P4HB, inhibitor:DMSO): 0.00 log 2
light to heavy ratio (L/H ratio) of acetylated peptide THILLFLPK(ac)SVSDYDGK (SEQ ID NO: 297) (Protein disulfide-isomerase [263], P4HB, drug:DMSO): −0.45 log 2
light to heavy ratio (L/H ratio) of acetylated peptide SGLLDK(ac)WK (SEQ ID NO: 602) (Signal peptidase complex subunit 2 [38], gene LOC653566, SPCS2, inhibitor:DMSO): 0.00 log 2
light to heavy ratio (L/H ratio) of acetylated peptide (ac)AEYLASIFGTEK(ac)DK (SEQ ID NO: 283) (Splicing factor U2AF 35 kDa subunit [13], U2AF1, drug:DMSO): 0.60 log 2
light to heavy ratio (L/H ratio) of acetylated peptide YDDPEVQK(ac)DIK (SEQ ID NO: 578) (Stress-70 protein mitochondrial [135], gene HSPA9, inhibitor:DMSO): 0.00 log 2
light to heavy ratio (L/H ratio) of acetylated peptide, log 2 scale (TAMK(ac)YNLGLDLR (SEQ ID NO: 158), Glutamate dehydrogenase 1 mitochondrial [527], GLUD1): 0.48
light to heavy ratio (L/H ratio) of acetylated peptide, log 2 scale (TLNDELEIIEGMK(ac)FDR (SEQ ID NO: 175), 60 kDa heat shock protein mitochondrial [218], HSPD1): −0.45
light to heavy ratio (L/H ratio) of acetylated peptide, log 2 scale (TPELNLDQFHDK(ac)TPYTIMFGPDK (SEQ ID NO: 139), cDNA FLJ55574 highly similar to Calnexin [217], CANX): −0.48
light to heavy ratio (L/H ratio) of acetylated peptide, log 2 scale (TPVIVTLK(ac)ENER (SEQ ID NO: 176), Hypoxia up-regulated protein 1 [75], HYOU1): −0.54
L/H ratio of acetylated peptide INVYYNEATGGK(ac)YVPR (SEQ ID NO: 109) (TUBB2C [58], log 2 scale, drug vs DMSO): −0.43
L/H ratio of acetylated peptide ILAEGGGAK(ac)FK (SEQ ID NO: 110) (TUFM [91], log 2 scale, drug vs DMSO): −0.61
L/H ratio of acetylated peptide QIESK(ac)TAFQEALDAAGDK (SEQ ID NO: 111) (TXN [8], log 2 scale, drug vs DMSO): −0.70
L/H ratio of acetylated peptide VYVAK(ac)VDCTAHSDVCSAQGVR (SEQ ID NO: 113) (TXNDC5, MUTED, MUTED-TXNDC5 [118], log 2 scale, drug vs DMSO): −0.49
L/H ratio of acetylated peptide LFKPGQEAVK(ac)YQGPR (SEQ ID NO: 112) (TXNDC5, MUTED, MUTED-TXNDC5 [150], log 2 scale, drug vs DMSO): −0.47
light to heavy ratio (L/H ratio) of acetylated peptide, log 2 scale (TYGEIFEK(ac)FHPIR (SEQ ID NO: 188), NADH dehydrogenase [ubiquinone] 1 subunit C2 [114], NDUFC2): 1.00
light to heavy ratio (L/H ratio) of acetylated peptide NICSK(ac)YSVR (SEQ ID NO: 256) (Thioredoxin domain-containing protein 5 [390], TXNDC5, MUTED, MUTED-TXNDC5, drug:DMSO): −0.51 log 2
